Experimental data reported in the CheMixHub ionic liquid set.

Experiment: xn = mol fraction of the nth substance listed

CCCCCCCC[N+](C)(C)C.[Br-] + O
298.15 K, 101 kPa
Settings	viscosity [mPa·s]
x1 = 0.000891	0.9226
x1 = 0.001742	0.956
x1 = 0.002174	0.9692
x1 = 0.002616	0.9795
x1 = 0.003154	0.9978
x1 = 0.003538	1.012
x1 = 0.004276	1.036
x1 = 0.004645	1.048
x1 = 0.005039	1.058
x1 = 0.005479	1.076

CCCCCCn1cc[n+](CCCCCC)c1.O=S(=O)([N-]S(=O)(=O)C(F)(F)F)C(F)(F)F + O
100 kPa, x2 = 0.1489
Settings	viscosity [mPa·s]
303.15 K	65.69
328.15 K	24.7

CCCC[P+](CCCC)(CCCC)CCCC.[Br-] + O
Settings	viscosity [mPa·s]
298.15 K, 101 kPa, x1 = 0.09759	10.65

CC[n+]1ccn(C)c1.O=C([O-])C(F)(F)C(F)(F)C(F)(F)C(F)(F)F + O
101 kPa
Settings	viscosity [mPa·s]
298.15 K, x1 = 0.02217	2.59
298.15 K, x1 = 0.1009	10.41
298.15 K, x1 = 0.2367	20.95
298.15 K, x1 = 0.4266	36.3
308.15 K, x1 = 0.03108	2.57
308.15 K, x1 = 0.04277	3.44
308.15 K, x1 = 0.08573	6
308.15 K, x1 = 0.1458	9.48
308.15 K, x1 = 0.2011	12.32
308.15 K, x1 = 0.2621	15.23
308.15 K, x1 = 0.3007	17.04
318.15 K, x1 = 0.02217	1.616
318.15 K, x1 = 0.1458	6.88
318.15 K, x1 = 0.1625	7.47

COCC[n+]1ccn(C)c1.C[C@@H](O)[C@H](N)C(=O)[O-] + O
100 kPa
Settings	viscosity [mPa·s]
303.15 K, x1 = 0.5348	557
303.15 K, x1 = 0.6571	581
308.15 K, x1 = 0.3313	297
318.15 K, x1 = 0.5348	163.8
323.15 K, x1 = 0.4476	114.9
323.15 K, x1 = 0.5348	120.9
323.15 K, x1 = 0.6571	126.6

C[NH+](C)C.O=S(=O)([O-])O + O
298.15 K, 101 kPa
Settings	viscosity [mPa·s]
x2 = 0.0727	4.98
x2 = 0.2456	4.64
x2 = 0.3339	4.43
x2 = 0.5675	3.69
x2 = 0.8484	2.18
x2 = 0.9552	1.3

[Br-].[PH3+]CCCCCCCCCCCCCC(c1ccccc1)(c1ccccc1)c1ccccc1 + O
300 K, 101 kPa
Settings	electrical conductivity [S/m]
x2 = 0.503	0.00198
x2 = 0.603	0.00058
x2 = 0.802	0.00038

CC[n+]1ccn(C)c1.O=S(=O)([O-])C(F)(F)F + O + CC(=O)[O-].CC[n+]1ccn(C)c1
293.15 K, 100 kPa
Settings	viscosity [mPa·s]
x2 = 0.337, x3 = 0.64	91
x2 = 0.341, x3 = 0.612	87
x2 = 0.348, x3 = 0.555	80
x2 = 0.359, x3 = 0.492	72

CC[NH+](C)CC.CS(=O)(=O)[O-] + O + CC[NH+](C)CC.O=S(=O)([O-])C(F)(F)F
101 kPa, x2 = 0.121, x3 = 0
Settings	viscosity [mPa·s]
313.15 K	46.5
333.15 K	21.6
353.15 K	12.05

CC[N+](C)(CC)CCOC.F[B-](F)(F)F + O=C1CCCO1
101 kPa
Settings	electrical conductivity [S/m]	viscosity [mPa·s]
288.15 K, x1 = 0.1006	0.841	6.82
288.15 K, x1 = 0.2004	0.851	9.23
288.15 K, x1 = 0.3005	0.691	16.02
288.15 K, x1 = 0.4002	0.57	23.81
288.15 K, x1 = 0.4999	0.424	63.2
288.15 K, x1 = 0.6001	0.29	103.1
288.15 K, x1 = 0.6998	0.215	157.6
288.15 K, x1 = 0.7999	0.164	213
293.15 K, x1 = 0.1006	0.951	5.32
293.15 K, x1 = 0.2004	0.976	7.92
293.15 K, x1 = 0.3005	0.817	13.79
293.15 K, x1 = 0.4002	0.688	20.66
293.15 K, x1 = 0.4999	0.522	49.1
293.15 K, x1 = 0.6001	0.377	78.1
293.15 K, x1 = 0.6998	0.298	116.8
293.15 K, x1 = 0.7999	0.227	155.5
298.15 K, x1 = 0.1006	1.06	4.185
298.15 K, x1 = 0.2004	1.114	6.94
298.15 K, x1 = 0.3005	0.956	11.91
298.15 K, x1 = 0.4002	0.811	17.89
298.15 K, x1 = 0.4999	0.641	38.49
298.15 K, x1 = 0.6001	0.472	59.7
298.15 K, x1 = 0.6998	0.389	86.9
303.15 K, x1 = 0.1006	1.18	3.324
303.15 K, x1 = 0.2004	1.26	6.02
303.15 K, x1 = 0.3005	1.113	10.17
303.15 K, x1 = 0.4002	0.971	15.32
303.15 K, x1 = 0.4999	0.783	30.01
303.15 K, x1 = 0.6001	0.596	45.3
303.15 K, x1 = 0.6998	0.503	64.6
308.15 K, x1 = 0.1006	1.28	2.671
308.15 K, x1 = 0.2004	1.433	5.26
308.15 K, x1 = 0.3005	1.28	8.82
308.15 K, x1 = 0.4002	1.126	13.39
308.15 K, x1 = 0.4999	0.927	24.01
308.15 K, x1 = 0.6001	0.725	35.23
308.15 K, x1 = 0.6998	0.615	48.3
313.15 K, x1 = 0.1006	1.416	2.197
313.15 K, x1 = 0.2004	1.606	4.633
313.15 K, x1 = 0.3005	1.47	7.63
313.15 K, x1 = 0.4002	1.29	11.62
313.15 K, x1 = 0.4999	1.09	19.44
313.15 K, x1 = 0.6001	0.868	27.85
313.15 K, x1 = 0.6998	0.745	36.75
318.15 K, x1 = 0.1006	1.55	1.855
318.15 K, x1 = 0.2004	1.78	4.085
318.15 K, x1 = 0.3005	1.65	6.55
318.15 K, x1 = 0.4002	1.48	10.01
318.15 K, x1 = 0.4999	1.27	15.67
318.15 K, x1 = 0.6001	1.04	21.94
318.15 K, x1 = 0.6998	0.878	27.84
323.15 K, x1 = 0.1006	1.69	1.577
323.15 K, x1 = 0.2004	1.97	3.603
323.15 K, x1 = 0.3005	1.839	5.68
323.15 K, x1 = 0.4002	1.68	8.77
323.15 K, x1 = 0.4999	1.46	12.42
323.15 K, x1 = 0.6001	1.22	16.68
323.15 K, x1 = 0.6998	1.02	20.94
328.15 K, x1 = 0.1006	1.827	1.35
328.15 K, x1 = 0.2004	2.15	3.183
328.15 K, x1 = 0.3005	2.05	4.95
328.15 K, x1 = 0.4002	1.89	7.71
328.15 K, x1 = 0.4999	1.66	10.11
328.15 K, x1 = 0.6001	1.41	13.1
328.15 K, x1 = 0.6998	1.21	15.79
333.15 K, x1 = 0.1006	1.96	1.142
333.15 K, x1 = 0.2004	2.34	2.827
333.15 K, x1 = 0.3005	2.25	4.282
333.15 K, x1 = 0.4002	2.1	6.74
333.15 K, x1 = 0.4999	1.86	8.58
333.15 K, x1 = 0.6001	1.63	11.02
333.15 K, x1 = 0.6998	1.404	12.64
338.15 K, x1 = 0.1006	2.08	0.992
338.15 K, x1 = 0.2004	2.53	2.498
338.15 K, x1 = 0.3005	2.47	3.693
338.15 K, x1 = 0.4002	2.32	5.89
338.15 K, x1 = 0.4999	2.09	6.92
338.15 K, x1 = 0.6001	1.86	8.55
338.15 K, x1 = 0.6998	1.607	9.17
343.15 K, x1 = 0.1006	2.21	0.876
343.15 K, x1 = 0.2004	2.73	2.235
343.15 K, x1 = 0.3005	2.68	3.194
343.15 K, x1 = 0.4002	2.54	5.15
343.15 K, x1 = 0.4999	2.29	5.85
343.15 K, x1 = 0.6001	2.1	7.16
343.15 K, x1 = 0.6998	1.85	6.87
348.15 K, x1 = 0.1006	2.35	0.795
348.15 K, x1 = 0.2004	2.92	2.001
348.15 K, x1 = 0.3005	2.91	2.754
348.15 K, x1 = 0.4002	2.79	4.507
348.15 K, x1 = 0.4999	2.56	4.69
348.15 K, x1 = 0.6001	2.35	5.48
348.15 K, x1 = 0.6998	2.08	5.52
353.15 K, x1 = 0.1006	2.48	0.716
353.15 K, x1 = 0.2004	3.14	1.753
353.15 K, x1 = 0.3005	3.11	2.391
353.15 K, x1 = 0.4002	3.04	4.028
353.15 K, x1 = 0.4999	2.82	3.864
353.15 K, x1 = 0.6001	2.62	4.301
353.15 K, x1 = 0.6998	2.36	3.983

C[n+]1ccn(CCCC#N)c1.O=S(=O)([N-]S(=O)(=O)C(F)(F)F)C(F)(F)F + O=C1CCCO1
electrical conductivity [S/m], 100 kPa
Settings	x1 = 0.1003	x1 = 0.2005	x1 = 0.3003	x1 = 0.4005	x1 = 0.4997	x1 = 0.6003	x1 = 0.7001	x1 = 0.8002	x1 = 0.9003	x1 = 1
288.15 K	0.668	0.774	0.578	0.43	0.309	0.225	0.151	0.11	0.077	0.061
293.15 K	0.731	0.838	0.635	0.482	0.353	0.266	0.186	0.141	0.101	0.083
298.15 K	0.794	0.908	0.696	0.54	0.405	0.312	0.226	0.176	0.132	0.112
303.15 K	0.862	0.976	0.76	0.603	0.46	0.365	0.272	0.217	0.169	0.146
308.15 K	0.933	1.05	0.827	0.669	0.522	0.424	0.324	0.265	0.212	0.185
313.15 K	1.01	1.122	0.897	0.741	0.59	0.487	0.383	0.319	0.262	0.231
318.15 K	1.08	1.2	0.971	0.817	0.662	0.556	0.448	0.379	0.319	0.285
323.15 K	1.16	1.28	1.05	0.899	0.741	0.633	0.519	0.448	0.384	0.346
328.15 K	1.242	1.36	1.128	0.987	0.825	0.714	0.599	0.521	0.455	0.414
333.15 K	1.33	1.444	1.21	1.08	0.915	0.799	0.686	0.606	0.536	0.491
338.15 K	1.416	1.532	1.3	1.18	1.015	0.896	0.782	0.695	0.625	0.575
343.15 K	1.508	1.622	1.39	1.28	1.115	0.996	0.884	0.793	0.719	0.669

CC[n+]1ccn(C)c1.O=S(=O)([O-])C(F)(F)F + O=S(=O)([N-]S(=O)(=O)C(F)(F)F)C(F)(F)F.[Li+]
101 kPa, x1 = 1
Settings	electrical conductivity [S/m]
288.15 K	0.605
298.15 K	0.859
333.15 K	2.24
